The test system of this test is lawn grass (European grass, evergreen lawn grass). Briefly: Hydroponic cultivation of a lawn grass: withering prevention and growth. The conditions noted are these: for Average root length / Leaf length MAX. / Leaf length MIN. / Total weight of living plant: 5 stocks; for Number of days till the plants were withered: from transplantation till about 70 percent of the leaves were withered. In kind it is in vivo. As for the experimental part:
Seedlings of a lawn grass (European grass, evergreen lawn grass) were cultivated and divided into eight groups of A to H, one group being composed of 80 stocks. In the groups B to H, inosine and uridine were added to each hydroponic liquid in such amount that the concentration became as shown in the table, and proline was diluted with water such that the concentration became as shown in the table and sprayed onto the leaves every day. Group A was the control.
On the 35th day, five average stocks which had not been withered were sampled from each group. […] In the table, the number of days till the plants were withered means the number of days from transplantation of the seedlings till about 70 percent of the leaves were withered.

[1] abbreviates: group B: 2 ppm inosine in hydroponic liquid.
[2] abbreviates: group B: 2 ppm inosine in hydroponic liquid, 35th day.
The mark [3] stands for this setting: group D: 2 ppm proline sprayed onto leaves every day, 35th day.
Where [4] appears, read: group F: 35 ppm proline sprayed onto leaves every day, 35th day.
The mark [5] stands for this setting: group G: 0.1 ppm proline sprayed onto leaves every day, 35th day.

Molecules are shown by their SMILES.

For `OC[C@H]1O[C@@H](n2cnc3c(O)ncnc32)[C@H](O)[C@@H]1O` [inosine, reference compound], under setting [1], the Remarks result is “Wilted and partially”; the “Number of days till the plants were withered” value was 25 days. For the same compound, under setting [2], the Average root length came to 2 cm, the “Leaf length MAX.” value worked out at 27 cm, the “Leaf length MIN.” value was found to be 8 cm and the “Total weight of living plant” value is 0.22 g.
For the compound `O=C(O)[C@@H]1CCCN1` [proline], the Remarks result was “Both leaves and steins” (group D: 2 ppm proline); “Partially wilted” (group F: 35 ppm proline); “Partially wilted” (group G: 0.1 ppm proline). Further, the Average root length came out at 3 cm under setting [3], 2 cm under setting [4] and 2 cm under setting [5]. In addition, the “Leaf length MAX.” value under setting [3] is reported as 21 cm, the “Leaf length MAX.” value under setting [4] turned out to be 20 cm and the “Leaf length MAX.” value under setting [5] was 19 cm. Also, the “Leaf length MIN.” value is 12 cm under setting [3], 8 cm under setting [4] and 7 cm under setting [5]. In addition, the “Total weight of living plant” value by setting is: under setting [3], 0.54 g; under setting [4], 0.28 g; under setting [5], 0.22 g. In addition, the “Number of days till the plants were withered” value reads like this: (group D: 2 ppm proline) 38 days; (group F: 35 ppm proline) 28 days; (group G: 0.1 ppm proline) 27 days. In addition, for the setting “proline-treated plot, especially at a concentration of 2 ppm, 35th day”, the “Growth at the root, leaf length and total weight of the living plants” value is given as “better growth”.

The record behind these values is patent publication US6448202B1, “Withering-preventing and quick-acting nutrition supplementing agent for gramineous plants” (Ajinomoto Co., Inc., priority 1999, dated 2002).
